Laboratory results: the supplement of paper PMC10307832

Legend:
Assay in all cases: relative viability (nuclei count vs DMSO), 5 days (fraction); higher = more cells survive
[1] = compound: c1ccc2c(CCNc3ccc(Nc4ccncc4)cc3)c[nH]c2c1 [Serdemetan] + Cc1nc(Nc2ncc(C(=O)Nc3c(C)cccc3Cl)s2)cc(N2CCN(CCO)CC2)n1 [Dasatinib] (partner 0.075 µM)
Summary of the method: (§1)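 The day after seeding in 1536-well plates, lung cancer cell lines were treated by pin tool with a single drug, or with a fixed anchor-drug dose together with five library-drug doses (not always all listed) in √10 steps. After 5 days, a combined fix-and-stain solution (final 0.05% Triton X-100, 1% formaldehyde, 1 ug/ml Hoechst) was added. Nuclei counted on 4× images gave relative viability as treated counts over vehicle counts, reported as the median of duplicate plates.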

[2] = compound: C1CC(C2=C(C1)C3=C(N2)C=CC(=C3)Cl)C(=O)N [Selisistat] + Nc1ncn([C@H]2C[C@H](O)[C@@H](CO)O2)c(=O)n1 [Decitabine] (partner 2 µM)
Summary of the method: as §1

[3] = compound: c1ccc2c(CCNc3ccc(Nc4ccncc4)cc3)c[nH]c2c1 [Serdemetan] + CCNC(=O)c1noc(-c2cc(C(C)C)c(O)cc2O)c1-c1ccc(CN2CCOCC2)cc1 [Luminespib] (partner 0.01 µM)
Summary of the method: as §1

[4] = compound: C1CC(C2=C(C1)C3=C(N2)C=CC(=C3)Cl)C(=O)N [Selisistat] + CC(C)C[C@H](NC(=O)[C@H](Cc1ccccc1)NC(=O)c1cnccn1)B(O)O [Bortezomib] (partner 0.002 µM)
Summary of the method: as §1

Cell Line | relative viability ([1]; first compound 0.04 µM) | relative viability ([1]; first compound 0.1265 µM) | relative viability ([1]; first compound 1.265 µM) | relative viability ([1]; first compound 4 µM) | relative viability ([2]; first compound 0.4 µM) | relative viability ([2]; first compound 1.265 µM) | relative viability ([2]; first compound 4 µM) | relative viability ([2]; first compound 12.65 µM) | relative viability ([2]; first compound 40 µM) | relative viability ([3]; first compound 0.04 µM) | relative viability ([3]; first compound 0.1265 µM) | relative viability ([3]; first compound 1.265 µM) | relative viability ([3]; first compound 4 µM) | relative viability ([4]; first compound 0.4 µM) | relative viability ([4]; first compound 1.265 µM) | relative viability ([4]; first compound 4 µM) | relative viability ([4]; first compound 12.65 µM) | relative viability ([4]; first compound 40 µM) | relative viability ([1]; first compound 0.4 µM) | relative viability ([3]; first compound 0.4 µM)
HCC-827 | 0.372 | 0.231 | 0.229 | 0.138 | 0.313 | 0.375 | 0.31 | 0.321 | 0.291 | 0.606 | 0.563 | 0.288 | 0.344 | 1.06 | 1.04 | 0.994 | 0.886 | 0.951 |  | 
HOP-62 | 0.561 | 0.625 | 0.538 | 0.567 | 0.22 | 0.211 | 0.215 | 0.227 | 0.192 | 0.758 | 0.915 | 0.666 | 0.596 | 0.837 | 1.08 | 0.867 | 0.624 | 0.883 | 0.636 | 0.848
LC-2-ad | 0.495 | 0.634 | 0.501 | 0.475 | 0.909 | 0.797 | 0.764 | 0.821 | 0.775 | 0.951 | 0.944 | 0.898 | 0.899 | 1 | 1.02 | 1.03 | 0.985 | 1.05 | 0.519 | 0.969
LCLC-97TM1 | 0.824 | 0.971 |  | 0.748 | 0.24 | 0.219 |  | 0.245 | 0.29 | 0.739 | 0.738 |  | 0.596 | 0.696 | 0.77 |  | 0.555 | 0.553 | 0.823 | 0.653
LCLC-103H | 0.466 | 0.434 | 0.331 | 0.482 | 0.782 | 0.77 | 0.7 | 0.729 | 0.75 | 0.971 | 1.03 | 0.975 | 0.751 | 1.15 | 1.03 | 0.979 | 1.14 | 1.09 | 0.539 | 1
LOU-NH91 | 0.564 | 0.554 | 0.43 | 0.565 | 0.815 | 0.795 | 0.784 | 0.787 | 0.788 | 0.282 | 0.334 | 0.296 | 0.299 | 0.499 | 0.505 | 0.448 | 0.511 | 0.515 | 0.371 | 0.347
LU99A | 0.545 | 0.515 | 0.217 | 0.232 | 0.947 | 0.928 | 0.847 | 0.792 | 0.907 | 0.26 | 0.259 | 0.182 | 0.193 | 1.17 | 1.15 | 1.33 | 1.16 | 1.11 | 0.592 | 0.185
LXF-289 | 0.231 | 0.197 | 0.202 | 0.185 | 0.425 | 0.379 | 0.337 | 0.355 | 0.431 | 0.636 | 0.706 | 0.517 | 0.401 | 1.02 | 1.05 | 0.832 | 0.937 | 0.984 | 0.199 | 0.625
